For data set [1], the system named is choroidal neovascularization. Put plainly: Laser-induced choroidal neovascularization (CNV) model, Example 2. The note with it: treated 7 days from day 7; for decrease in CNV area compared to control eyes: experiment with Gleevec (50 mg/kg gavage twice a day) and pegaptanib 25 mg/kg i.p. twice a day. Type of data set: in vivo, C57BL/6 mice. As for the experimental part: Experimental CNV is often used as a model for Age-related Macular degeneration (AMD). In this model, vessels of the choroid grow through breaks in Bruch's membrane and into the retina, similar to what is observed in AMD patients. To induce experimental CNV, male C57BL/6 mice (18-20 g; Charles River, Wilmington, Mass.) were anesthetized with intramuscular ketamine hydrochloride (25 mg/kg) and xylazine (10 mg/kg) and the pupils were dilated with 1% tropicamide. Four burns were generated using diode laser photocoagulation (75-μm spot size, 0.1-second duration, 90 mW, Oculight SL laser, IRIDEX, Mountain View, Calif.) and a hand-held cover slide as a contact lens. Burns localized to the 3, 6, 9 and 12 o'clock positions of the posterior pole of the retina. Production of a bubble at the time of laser, which indicates rupture of Bruch's membrane, is an important factor in obtaining choroidal neovascularization, so only mice in which a bubble was produced for all four burns were included in the study. […] In experiments using APB5 (an anti-mouse PDGFRb (CD140b) antibody (anti-PDGF agent) from eBioscience, San Diego, Calif.), 5 mg/kg of antibody was administered using intra-peritoneal injections of twice a day. The area of choroidal NV lesions was measured in flat-mounted choroid stained with PECAM. Flat-mounts were examined by fluorescence microscopy and quantified using Openlab software.

In data set [2] the test system is developing vessels of the retina. The data set is described as follows: Neonatal mouse model, developing vessels of the retina, Example 3. Type of data set: in vivo, Neonatal C57BL/6 mice. To be noted: for effect on blood vessels of the developing retina (growth, morphology): 100 μg of each agent i.p. daily from P0, eyes taken at P4, versus control non-treated retina, FIG. 10. An excerpt: The effect of administering pegaptanib sodium (Macugen™), and ARC-127 (Archemix Corp., Cambridge, Mass.), a PEGylated, anti-PDGF aptamer having the sequence […] […] […] GT (SEQ ID NO: 23, which corresponds to SEQ ID NO: 146 from U.S. Pat. No. 6,582,918, incorporated herein by reference in its entirety) having 2′-fluoro-2′-deoxyuridine at positions 6, 20 and 30, 2′-fluoro-2′-deoxycytidine at positions 8, 21, 28, and 29, 2′-O -Methyl-2′-deoxyguanosine at positions 9, 15, 17, and 31, 2′-O-Methyl-2′-deoxyadenosine at position 22, “N” in positions 10 and 23 from a hexaethylene-glycol phosphoramidite, and an inverted orientation T (i.e., 3′-3′-linked) at position 32, or both on the developing vessels of the retina was investigated. Neonatal C57BL/6 mice were injected daily (in the intra-peritoneal cavity) with 100 μg of ARC-127 or 100 μg of Macugen or both, starting on postnatal day 0 (P0). Mice eyes were enucleated at P4. The retinal vasculature was visualized in flatmounted retinas by immunostaining with PECAM and NG-2 or by perfusion with ConA-FITC and analyzed by fluorescence microscopy.

In data set [3] the test system is corneal neovascularization. Put plainly: Corneal NV regression, anti-VEGF aptamer and anti-PDGF aptamer, Example 6. Type of data set: in vivo, C57BL/6 mice. To be noted: pegaptanib 25 mg/kg i.p. twice a day, ARC-127 50 mg/kg once a day; treated day 10-20, read day 20; FIGS. 11, 12. As for the experimental part:
(§1) Corneal Neovascularization is a widely used animal model that allows clear visualization of abnormal vascular growth in the eye. The vessels that grow into the normally avascular cornea, can become well established, making this an attractive model to study vessel regression. To induce experimental corneal NV, male C57BL/6 mice (18-20 g; Charles River, Wilmington, Mass.) were anesthetized with intramuscular ketamine hydrochloride (25 mg/kg) and xylazine (10 mg/kg). NaOH (2 ul of 0.2 mM) was applied topically. The corneal and limbal epithelia were removed by applying a rotary motion parallel to the limbus using #21 blade (Feather, Osaka, Japan). […] Corneal NV was visualized using fluorescence microscopy and quantified using Openlab software. The percent of cornea covered by vessels was calculated as a percentage of total corneal area.
The corneal NV model of Example 1 was used to investigate the combination of an anti-VEGF aptamer and anti-PDGF aptamer. […] Corneal NV was visualized using CD31 staining (BD Biosciences Pharmingen, San Diego, Calif.) and quantified using Metamorph software. The percent of cornea covered by vessels was calculated as a percentage of total corneal area.

Data set [4] has as its system corneal neovascularization. Put plainly: Corneal neovascularization (corneal NV) model, Example 1. The note with it: mice; pegaptanib 25 mg/kg i.p. twice a day, Gleevec 50 mg/kg gavage twice a day; treated day 7-14, read day 14; FIG. 5. Type of data set: in vivo, C57BL/6 mice.
Data set [5] relates to corneal neovascularization. Put plainly: Corneal NV regression, anti-VEGF aptamer and antibody against PDGFB receptor, Example 7. Type of data set: in vivo, C57BL/6 mice. The note with it: pegaptanib 25 mg/kg i.p. twice a day, APB5 50 mg/kg by gavage twice a day; treated day 14-28, read day 28; FIG. 13. The protocol: as §1
The corneal NV model of Example 1 was used to investigate the combination of an anti-VEGF aptamer and an antibody against the PDGFB receptor. […] Corneal NV was visualized using fluorescence microscopy and quantified using Openlab software. The percent of cornea covered by vessels was calculated as a percentage of total corneal area.

The test system of data set [6] is corneal neovascularization. Put plainly: Corneal NV regression, order of addition of therapeutic agent, Example 8. Type of data set: in vivo, C57BL/6 mice. To be noted: APB5 from day 14-21, pegaptanib sodium from day 21-28; read day 28; FIG. 14. The protocol: as §1
The corneal NV model of Example 1 was used to investigate the effect of order of addition of the combination therapy using an anti-VEGF aptamer and an antibody against the PDGFB receptor. […] Corneal NV was visualized using fluorescence microscopy and quantified using Openlab software. The percent of cornea covered by vessels was calculated as a percentage of total corneal area and the results are depicted in FIG. 14.

Entries after “also recorded” stand apart in the source; their conditions may differ.

For `Cc1ccc(NC(=O)c2ccc(CN3CCN(C)CC3)cc2)cc1Nc1nccc(-c2cccnc2)n1` [Gleevec], the “decrease in CNV area compared to control eyes” value in data set [1] is recorded as 4.2%.

Regarding “ARC-127: PEGylated, anti-PDGF aptamer (Archemix Corp.), sequence CAGGCUACGNCGTAGAGCAUCANTGATCCUGT (SEQ ID NO: 23) with 2′-fluoro and 2′-O-methyl modifications (CAGGCUACGNCGTAGAGCAUCANTGATCCUGT; PEG, 2'-fluoro and 2'-O-methyl modifications, chemistry not fully specified)”, the “mural cell recruitment to the developing vessels of the retina” value in data set [2] (100 μg i.p. daily from P0, eyes taken at P4) is reported as “completely blocked”. The “effect on blood vessels of the developing retina (growth, morphology)” value in data set [2] was “less vessel growth; also recorded: affects vessels outgrowth and morphology”. For the same compound, the “decrease in vessel growth (percent of cornea covered by vessels) as compared to day 20 controls” value in data set [3] was “did not show a significant decrease”.

For the compound pegaptanib sodium, the “decrease in vessel growth (percent of cornea covered by vessels) as compared to untreated controls and Gleevec treated eyes” value in data set [4] was found to be 19.6%. Moreover, in data set [1] (experiment with APB5 (5 mg/kg i.p. twice a day) and pegaptanib 25 mg/kg i.p. twice a day), the “decrease in CNV area compared to control” value is 24%. In addition, the “decrease in CNV area compared to control eyes” value in data set [1] stood at 27%. In data set [2] (listed as Macugen), the “effect on blood vessels of the developing retina (growth, morphology)” value is given as “did not interfere; also recorded: no effect”. In addition, in data set [3], the “decrease in vessel growth (percent of cornea covered by vessels) as compared to day 20 controls” value stood at 13.81%. The “decrease in vessel growth (percent of cornea covered by vessels) as compared to control” value in data set [5] was 8.3%. Further, the “regression of corneal neovascularization, less neovascular growth as compared to control” value in data set [6] is on record as “little effect”.

The record behind these values is US8206707B2, “Combination therapy for the treatment of ocular neovascular disorders” (Ophthotech Corporation, priority 2004, dated 2012).
